Tests used:
Assay in all cases: relative viability (nuclei count vs DMSO), 5 days (fraction); higher = more cells survive
[1] = test system: LOU-NH91
Method in brief: (§1)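 After 5 days of treatment, lung cancer cells in 1536-well plates were fixed and stained in a single step (final 0.05% Triton X-100, 1% formaldehyde, 1 ug/ml Hoechst) and their nuclei counted on 4× images. Treatment had been applied by pin tool the day after seeding as one drug alone or as a fixed anchor-drug dose with five library-drug doses (not always all listed) in √10 steps. Relative viability is the nuclei count of treated wells divided by that of vehicle wells, and values are medians of duplicate plates.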

[2] = test system: 201T
Method in brief: as §1

[3] = test system: NCI-H1993
Method in brief: as §1

[4] = test system: NCI-H2085
Method in brief: as §1

[5] = test system: NCI-H441
Method in brief: as §1

[6] = test system: NCI-H3122
Method in brief: as §1

[7] = test system: NCI-H1563
Method in brief: as §1

[8] = test system: NCI-H1793
Method in brief: as §1

[9] = test system: NCI-H2170
Method in brief: as §1

[10] = test system: NCI-H520
Method in brief: as §1

[11] = test system: RERF-LC-KJ
Method in brief: as §1

[12] = test system: NCI-H2023
Method in brief: as §1

[13] = test system: SW 900
Method in brief: as §1

[14] = test system: HCC-44
Method in brief: as §1

[15] = test system: NCI-H1650
Method in brief: as §1

[16] = test system: COR-L23
Method in brief: as §1

[17] = test system: EPLC-272H
Method in brief: as §1

[18] = test system: NCI-H2405
Method in brief: as §1

[19] = test system: NCI-H647
Method in brief: as §1

[20] = test system: PC-14
Method in brief: as §1

[21] = test system: NCI-H2347
Method in brief: as §1

[22] = test system: EKVX
Method in brief: as §1

[23] = test system: NCI-H1734
Method in brief: as §1

SMILES: Clc1ccc(Nc2nnc(Cc3ccncc3)c3ccccc23)cc1 [Vatalanib] + Nc1nc2[nH]cc(CCc3ccc(C(=O)N[C@@H](CCC(=O)O)C(=O)O)cc3)c2c(=O)[nH]1 [Pemetrexed] (partner 0.2 µM)
- relative viability ([1]; first compound 0.04 µM): 0.417
- relative viability ([1]; first compound 0.1265 µM): 0.378
- relative viability ([1]; first compound 0.4 µM): 0.373
- relative viability ([1]; first compound 1.265 µM): 0.366
- relative viability ([1]; first compound 4 µM): 0.361
- relative viability ([2]; first compound 0.04 µM): 0.305
- relative viability ([2]; first compound 0.1265 µM): 0.335
- relative viability ([2]; first compound 0.4 µM): 0.337
- relative viability ([2]; first compound 1.265 µM): 0.359
- relative viability ([2]; first compound 4 µM): 0.311
- relative viability ([3]; first compound 0.04 µM): 0.581
- relative viability ([3]; first compound 0.1265 µM): 0.644
- relative viability ([3]; first compound 0.4 µM): 0.619
- relative viability ([3]; first compound 1.265 µM): 0.501
- relative viability ([3]; first compound 4 µM): 0.619
- relative viability ([4]; first compound 0.04 µM): 0.844
- relative viability ([4]; first compound 0.1265 µM): 0.842
- relative viability ([4]; first compound 0.4 µM): 0.976
- relative viability ([4]; first compound 1.265 µM): 0.892
- relative viability ([4]; first compound 4 µM): 0.821
- relative viability ([5]; first compound 0.04 µM): 0.249
- relative viability ([5]; first compound 0.1265 µM): 0.215
- relative viability ([5]; first compound 0.4 µM): 0.257
- relative viability ([5]; first compound 1.265 µM): 0.265
- relative viability ([5]; first compound 4 µM): 0.274
- relative viability ([6]; first compound 0.04 µM): 0.195
- relative viability ([6]; first compound 0.1265 µM): 0.19
- relative viability ([6]; first compound 0.4 µM): 0.191
- relative viability ([6]; first compound 1.265 µM): 0.199
- relative viability ([6]; first compound 4 µM): 0.189
- relative viability ([7]; first compound 0.04 µM): 0.804
- relative viability ([7]; first compound 0.1265 µM): 0.772
- relative viability ([7]; first compound 0.4 µM): 0.857
- relative viability ([7]; first compound 1.265 µM): 0.758
- relative viability ([7]; first compound 4 µM): 0.77
- relative viability ([8]; first compound 0.04 µM): 0.789
- relative viability ([8]; first compound 0.1265 µM): 0.817
- relative viability ([8]; first compound 0.4 µM): 1.06
- relative viability ([8]; first compound 1.265 µM): 0.747
- relative viability ([8]; first compound 4 µM): 0.714
- relative viability ([9]; first compound 0.04 µM): 0.328
- relative viability ([9]; first compound 0.1265 µM): 0.289
- relative viability ([9]; first compound 0.4 µM): 0.273
- relative viability ([9]; first compound 1.265 µM): 0.292
- relative viability ([9]; first compound 4 µM): 0.261
- relative viability ([10]; first compound 0.04 µM): 0.676
- relative viability ([10]; first compound 0.1265 µM): 0.654
- relative viability ([10]; first compound 0.4 µM): 0.751
- relative viability ([10]; first compound 1.265 µM): 0.625
- relative viability ([10]; first compound 4 µM): 0.62
- relative viability ([11]; first compound 0.04 µM): 0.489
- relative viability ([11]; first compound 0.1265 µM): 0.476
- relative viability ([11]; first compound 0.4 µM): 0.484
- relative viability ([11]; first compound 1.265 µM): 0.502
- relative viability ([11]; first compound 4 µM): 0.458
- relative viability ([12]; first compound 0.04 µM): 0.263
- relative viability ([12]; first compound 0.1265 µM): 0.21
- relative viability ([12]; first compound 0.4 µM): 0.215
- relative viability ([12]; first compound 1.265 µM): 0.242
- relative viability ([12]; first compound 4 µM): 0.202
- relative viability ([13]; first compound 0.04 µM): 0.476
- relative viability ([13]; first compound 0.1265 µM): 0.471
- relative viability ([13]; first compound 0.4 µM): 0.467
- relative viability ([13]; first compound 1.265 µM): 0.478
- relative viability ([13]; first compound 4 µM): 0.464
- relative viability ([14]; first compound 0.04 µM): 0.593
- relative viability ([14]; first compound 0.1265 µM): 0.61
- relative viability ([14]; first compound 0.4 µM): 0.673
- relative viability ([14]; first compound 1.265 µM): 0.638
- relative viability ([14]; first compound 4 µM): 0.683
- relative viability ([15]; first compound 0.04 µM): 0.359
- relative viability ([15]; first compound 0.1265 µM): 0.305
- relative viability ([15]; first compound 0.4 µM): 0.323
- relative viability ([15]; first compound 1.265 µM): 0.388
- relative viability ([15]; first compound 4 µM): 0.388
- relative viability ([16]; first compound 0.04 µM): 0.204
- relative viability ([16]; first compound 0.1265 µM): 0.194
- relative viability ([16]; first compound 0.4 µM): 0.212
- relative viability ([16]; first compound 1.265 µM): 0.201
- relative viability ([16]; first compound 4 µM): 0.208
- relative viability ([17]; first compound 0.04 µM): 0.349
- relative viability ([17]; first compound 0.1265 µM): 0.334
- relative viability ([17]; first compound 0.4 µM): 0.781
- relative viability ([17]; first compound 1.265 µM): 0.295
- relative viability ([17]; first compound 4 µM): 0.376
- relative viability ([18]; first compound 0.04 µM): 1.04
- relative viability ([18]; first compound 0.1265 µM): 1.04
- relative viability ([18]; first compound 0.4 µM): 0.981
- relative viability ([18]; first compound 4 µM): 1.01
- relative viability ([19]; first compound 0.04 µM): 0.192
- relative viability ([19]; first compound 0.1265 µM): 0.163
- relative viability ([19]; first compound 0.4 µM): 0.163
- relative viability ([19]; first compound 1.265 µM): 0.187
- relative viability ([19]; first compound 4 µM): 0.19
- relative viability ([20]; first compound 0.04 µM): 0.135
- relative viability ([20]; first compound 0.1265 µM): 0.125
- relative viability ([20]; first compound 0.4 µM): 0.125
- relative viability ([20]; first compound 1.265 µM): 0.129
- relative viability ([20]; first compound 4 µM): 0.129
- relative viability ([21]; first compound 0.04 µM): 0.444
- relative viability ([21]; first compound 0.1265 µM): 0.419
- relative viability ([21]; first compound 0.4 µM): 0.43
- relative viability ([21]; first compound 1.265 µM): 0.487
- relative viability ([21]; first compound 4 µM): 0.41
- relative viability ([22]; first compound 0.04 µM): 0.416
- relative viability ([22]; first compound 0.1265 µM): 0.425
- relative viability ([22]; first compound 0.4 µM): 0.393
- relative viability ([22]; first compound 1.265 µM): 0.339
- relative viability ([22]; first compound 4 µM): 0.365
- relative viability ([23]; first compound 0.04 µM): 0.401
- relative viability ([23]; first compound 0.1265 µM): 0.42
- relative viability ([23]; first compound 0.4 µM): 0.414
- relative viability ([23]; first compound 1.265 µM): 0.427
- relative viability ([23]; first compound 4 µM): 0.379
